Results: patent US11286268B1, “EIF4E-inhibiting compounds and methods” (EFFECTOR THERAPEUTICS, INC., priority 2019, dated 2022)
Like-named read-outs stand apart in the source and are kept apart here.

Target: recombinant eIF4E (Homo sapiens (Human), UniProt P06730)
Test: Fluorescence polarization competition assay for eIF4E binding potency
Procedure, shortened: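 FP readout; IC50 fit from 8-point, 3-fold series. 75 nM eIF4E + 20 nM ATTO-550-labelled m7GDP probe, Tris pH 7.5/NaCl/DTT/Tween buffer, 1% DMSO final. 30 min RT equilibration, light-protected.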

[1] = fluorescence polarization competition, 75 nM recombinant eIF4E, 20 nM EDA-m7GDP-ATTO-550, IC50 class, read-out: elF4E FP
[2] = inhibition of eIF4E/EDA-m7GDP-ATTO-550 binding by 50%, Table 4B calculated values, read-out: IC50
[3] = inhibition of eIF4E/EDA-m7GDP-ATTO-550 binding, calculated IC50 values, Table 4B, read-out: IC50

Sequence of recombinant eIF4E (P06730 whole entry): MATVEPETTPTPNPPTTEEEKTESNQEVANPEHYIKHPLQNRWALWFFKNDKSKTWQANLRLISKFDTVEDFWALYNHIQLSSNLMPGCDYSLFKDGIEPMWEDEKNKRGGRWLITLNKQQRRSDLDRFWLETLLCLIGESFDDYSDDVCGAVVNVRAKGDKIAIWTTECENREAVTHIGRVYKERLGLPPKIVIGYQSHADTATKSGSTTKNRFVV

Compound | IC50 [1] | IC50 [2] | IC50 [3]
Cc1cc(-c2cc(Cl)ccc2OCCn2c(C)nc3cc(C(F)(F)F)c(N(C)C)c(C#N)c3c2=O)c2scc(C(=O)O)c2n1 [compound 996] | < 50 nM | 31.6 nM | 
Cc1nc2cc(F)c(S(=O)(=O)N(C)C)c(C#N)c2c(=O)n1CCOc1ccc(Cl)cc1-c1ccnc2c(C(=O)O)csc12 [compound 281] | < 50 nM | 37.5 nM | 
N#Cc1ccc(C#N)c2c(=O)n(CCOc3ccc(Cl)cc3-c3cccc(C(=O)O)c3)cnc12 [compound 1990] |  |  | 58.1 nM
Cc1cc(-c2cc(Cl)ccc2OCCn2c(C)nc3cc(F)c(F)c(C#N)c3c2=O)c2scc(C(=O)NS(C)(=O)=O)c2n1 [compound 567] | < 50 nM | 11.7 nM | 
Cc1nc2cnc(/C=C/CN(C)CCF)c(C#N)c2c(=O)n1CCOc1ccc(Cl)cc1-c1ccnc2c(C(=O)O)csc12 [compound 1328] |  |  | 24.8 nM
Cc1nc2cnc(N(C)C3CCN([C@H]4C[C@H](F)C4)CC3)c(C#N)c2c(=O)n1CC#Cc1ccc(Cl)cc1-c1ccnc2c(C(=O)NS(=O)(=O)C3COC3)csc12 [compound 1791] |  |  | 10.1 nM
Cc1cc(-c2cc(Cl)ccc2OCCn2c(C)nc3cc(C(F)F)c(-c4cccnc4C)c(C#N)c3c2=O)c2scc(C(=O)O)c2n1 [compound 440] | < 50 nM | 4.99 nM | 
COCCC(CCOC)N(C)c1ncc2nc(C)n(CC#Cc3ccc(Cl)cc3-c3ccnc4c(C(=O)O)csc34)c(=O)c2c1C#N [1173b] |  | 13 nM | 
Cc1nc2cnc(N(C)C3CCN(CC(F)F)CC3)c(C#N)c2c(=O)n1CC#Cc1ccc(Cl)cc1-c1ccnc2c(C(=O)O)csc12 [compound 1112] | < 50 nM | 19.9 nM | 
N#Cc1cccc2nc(C(F)F)n(CCOc3ccc(Cl)cc3-c3ccnc(C(=O)O)c3)c(=O)c12 [compound 166] | < 50 nM | 35 nM | 
Cc1cc(-c2cc(Cl)ccc2OCCn2c(C)nc3cnc(C4(F)CN(C)C4)c(C#N)c3c2=O)c2scc(C(=O)O)c2n1 [compound 1421] |  |  | 36.6 nM
Cc1cc(-c2cc(Cl)ccc2OCCn2c(C)nc3cc(C(F)(F)F)c(N4CCC(C(F)(F)F)CC4)nc3c2=O)c2scc(C(=O)O)c2n1 [compound 803] | 50 to 1000 nM | 161 nM | 
Cc1nc2cc(C(F)(F)F)cc(C#N)c2c(=O)n1CCOc1ccc(Cl)cc1-c1coc2c(C(=O)O)ccnc12 [compound 324] | 50 to 1000 nM | 93.3 nM | 
CCN(c1ncc2nc(C)n(CC#Cc3ccc(Cl)cc3-c3ccnc4c(C(=O)O)csc34)c(=O)c2c1C#N)C1CCN(C2CC2)CC1 [compound 1600] |  |  | 20.3 nM
Cc1nc2cnc(N(C)C3CCN(CCC(C)(F)F)CC3)c(C#N)c2c(=O)n1CC#Cc1ccc(Cl)cc1-c1ccnc2c(C(=O)NS(C)(=O)=O)csc12 [compound 1713] |  |  | 15.8 nM
COc1c(CCOc2ccc(Cl)cc2-c2ccnc3c(C(=O)O)csc23)c(C)cc2cc(C(F)(F)F)cc(C#N)c12 [compound 1977] |  |  | > 1000 nM
COCCC(CCOC)N(C)c1ncc2nc(C)n(CC#Cc3ccc(Cl)cc3-c3ccnc4c(C(=O)O)csc34)c(=O)c2c1C#N [compound 1505] |  |  | 13 nM
Cc1nc(-c2ccccc2C(F)(F)F)c(C#N)c2c(=O)n(CCOc3ccc(Cl)cc3-c3ccnc4c(C(=O)O)csc34)c(C)nc12 [compound 1148] | < 50 nM | 35.6 nM | 
C#Cc1c(-c2cc(Cl)ccc2OCCn2c(C)nc3ccc(C(F)F)c(C#N)c3c2=O)ccnc1C(=O)O [compound 57] | < 50 nM | 12.8 nM | 
Cc1cc(-c2cc(Cl)ccc2OCCn2c(C)nc3cc(Cl)c(N4CC(C(F)(F)F)C4)c(C#N)c3c2=O)c2scc(C(=O)O)c2n1 [compound 689] | < 50 nM | 11.5 nM | 
Cc1cc(-c2cc(Cl)ccc2OCCn2c(C)nc3cc(C(F)(F)F)c(-c4cnc(C)nc4C)c(C#N)c3c2=O)c2scc(C(=O)O)c2n1 [compound 437] | < 50 nM | 6.21 nM | 
Cc1nc(N2CCN(C)CC2)c(C#N)c2c(=O)n(CC#Cc3ccc(Cl)cc3-c3ccnc4c(C(=O)O)csc34)c(C)nc12 [compound 1273] |  |  | 7.48 nM
Cc1nc2cc(C(F)(F)F)c(N3CCN(C)CC3)c(C#N)c2c(=O)n1CCOc1ccc(Cl)cc1-c1ccnc2c(C#N)csc12 [compound 1254] |  |  | 26.5 nM
Cc1nc2c(-c3cncnc3)ccc(C#N)c2c(=O)n1CCOc1ccc(Cl)cc1-c1ccnc2c(C(=O)O)csc12 [compound 204] | < 50 nM | 44.4 nM | 
O=C(O)c1cccc(-c2cc(Cl)ccc2OCCn2nnc3ccccc3c2=O)c1 [compound 1991] |  |  | > 300000 nM
Cc1cc(-c2cc(Cl)ccc2OCCn2c(C)nc3cnc(-n4cccn4)c(C#N)c3c2=O)c2scc(C(=O)O)c2n1 [compound 984] | < 50 nM | 11.5 nM | 
Cc1cc(-c2cc(Cl)ccc2OCCn2c(C)nc3cc(F)c(-c4ccccc4)c(C#N)c3c2=O)c2scc(C(=O)O)c2n1 [compound 935] | < 50 nM | 19.6 nM | 

Compound | IC50 [1] | IC50 [2] | IC50 [3]
Cc1nc2c(N3C4CCC3CN(C)C4)ncc(C#N)c2c(=O)n1CCOc1ccc(Cl)cc1-c1ccnc2c(C(=O)O)csc12 [compound 857] | < 50 nM | 4.62 nM | 
Cc1nc2c(F)cc(C(F)F)c(C#N)c2c(=O)n1CCOc1cc(F)c(Cl)cc1-c1ccnc2c(C(=O)O)csc12 [compound 504] | < 50 nM | 22.9 nM | 
N#Cc1cc(C(F)(F)F)cc2ncn(CCOc3ccc(Cl)cc3-c3ccnc4c(C(=O)O)csc34)c(=O)c12 [compound 164] |  | 16.4 nM | 
Cc1nc2cnc(N3CCN(C(C)C)CC3)c(C#N)c2c(=O)n1CC#Cc1ccc(Cl)cc1-c1ccnc2c(C(=O)O)csc12 [compound 1637] |  |  | 17.7 nM
Cc1cc(-c2cc(Cl)ccc2OCCn2c(C)nc3c(F)cc(C(F)F)c(C#N)c3c2=O)c2scc(C(=O)O)c2n1 [compound 587] | < 50 nM | 25.5 nM | 
Cc1cc(-c2cc(Cl)ccc2OCCn2c(C)nc3cc(C(F)(F)F)c(CN4CCN(C)CC4)c(C#N)c3c2=O)c2sc(C)c(C(=O)O)c2n1 [compound 417] | < 50 nM | 19.7 nM | 
CCN(c1ncc2nc(C)n(CC#Cc3ccc(Cl)cc3-c3ccnc4c(C(=O)NS(=O)(=O)Cc5ccccn5)csc34)c(=O)c2c1C#N)C1CCN(C2COC2)CC1 [compound 1738] |  |  | 25.5 nM
Cc1nc2cnc(N(C)C3CCN(C(C)CF)CC3)c(C#N)c2c(=O)n1CC#Cc1ccc(Cl)cc1-c1ccnc2c(C(=O)O)csc12 (centres unmarked) [compound 1508] |  |  | 17.4 nM
Cc1cc(-c2cc(Cl)ccc2OCCn2c(C)nc3cnc(N4CC(N(C)C)C4)c(C#N)c3c2=O)c2sc(C)c(C(=O)O)c2n1 [compound 1091] | 50 to 1000 nM | 91.4 nM | 
Cc1cc2cc(C#N)c(CN(C)C)c(C#N)c2c(=O)n1CCOc1ccc(Cl)cc1-c1ccnc2c(C(=O)O)csc12 [compound 511] | 50 to 1000 nM | 88 nM | 
Cc1nc2c(S(=O)(=O)N(C)C)ccc(C#N)c2c(=O)n1CCOc1ccc(Cl)cc1-c1ccnc2c(C(=O)O)csc12 [compound 237] | 50 to 1000 nM | 54.8 nM | 
Cc1cc(-c2cc(Cl)ccc2OCCn2c(C)nc3cc(C(F)(F)F)c(C4CCNCC4)cc3c2=O)c2sc(C)c(C(=O)O)c2n1 [compound 877] | 50 to 1000 nM | 234 nM | 
Cc1nc2cc(CN(C)C)c(OC(F)F)c(C#N)c2c(=O)n1CCOc1ccc(Cl)cc1-c1ccnc2c(C(=O)O)csc12 [compound 458] | < 50 nM | 36.8 nM | 
Cc1nc2cncc(C#N)c2c(=O)n1CCOc1ccc(Cl)cc1-c1cccc(C(=O)O)c1 [compound 1982] |  |  | 36.4 nM
N#Cc1ccc(C#N)c2c(=O)n(CCOc3ccc(Cl)cc3-c3ccnc4c(C(=O)O)csc34)c(C(F)F)nc12 [compound 1943] |  |  | 42.4 nM
Cc1nc2c(N(C)C3CCN(C)CC3F)ncc(C#N)c2c(=O)n1CCOc1ccc(Cl)cc1-c1ccnc2c(C(=O)O)csc12 (centres unmarked) [compound 862] | < 50 nM | 20.9 nM | 
Cc1cc(-c2cc(Cl)ccc2OCCn2c(C)nc3cnc(CCN(C)C)c(C#N)c3c2=O)c2scc(C(=O)O)c2n1 [compound 365] | < 50 nM | 19 nM | 
CCN(CC)S(=O)(=O)c1ccc2nc(C)n(CCOc3ccc(Cl)cc3-c3ccnc4c(C(=O)O)csc34)c(=O)c2c1C#N [compound 250] | < 50 nM | 43.7 nM | 
Cc1nc2cnc(N3CCN(CCC(F)(F)F)CC3)c(C#N)c2c(=O)n1CCOc1ccc(Cl)cc1-c1ccnc2c(C(=O)O)csc12 [compound 1308] |  |  | 41.5 nM
O=C(O)c1cccc(-c2cc(Cl)ccc2OCCn2cnc3cnc(Sc4ccccc4)cc3c2=O)c1 [compound 26] | 50 to 1000 nM | 919 nM | 
CCc1cc(-c2cc(Cl)ccc2OCCn2c(C)nc3cc(C(F)(F)F)c(-c4ccn(C)n4)c(C#N)c3c2=O)c2scc(C(=O)O)c2n1 [compound 1014] | < 50 nM | 25.6 nM | 
O=C(O)c1cccc(-c2cc(Cl)ccc2OCCn2cnc3c(F)cccc3c2=O)c1 [compound 76] | > 1000 nM | 2300 nM | 
Cc1cc(-c2cc(Cl)ccc2C#CCn2c(C)nc3cc(C(F)(F)F)c(CN4CCN(C)CC4)c(C#N)c3c2=O)c2scc(C(=O)O)c2n1 [compound 616] | < 50 nM | 2.45 nM | 
Cc1nc2cnc(N3CCN(C4(C)CC(F)(F)C4)CC3)c(C#N)c2c(=O)n1CC#Cc1ccc(Cl)cc1-c1ccnc2c(C(=O)O)csc12 [compound 1493] |  |  | 6.83 nM
Cc1cc(-c2cc(N3CC(F)(F)C3)ccc2OCCn2c(C)nc3cc(C(F)(F)F)c(N4CC(F)(F)C4)c(C#N)c3c2=O)c2scc(C(=O)O)c2n1 [compound 2036] |  |  | 38.4 nM
CCN(c1ncc2nc(C)n(CC#Cc3ccc(Cl)cc3-c3ccnc4c(C(=O)NS(=O)(=O)c5ccccn5)csc34)c(=O)c2c1C#N)C1CCN(C2COC2)CC1 [compound 1742] |  |  | 5.43 nM
O=C(O)c1cccc(-c2cc(Cl)ccc2OCCn2cnc3cnc(-n4cccn4)cc3c2=O)c1 [compound 136] | 50 to 1000 nM | 199 nM | 
